biological target: human PDE10A (UniProt Q9Y233); assay: Measurement of PDE activity (recombinant enzyme, HTRF cAMP kit); type: biochemical; conditions: Table 1, substrate 20 nM for PDE10, 60 minutes at 29 C, read-out: IC50
Description: The recombinant PDE proteins are used in in vitro enzymatic reaction for measurement of PDE activity. These recombinant proteins, including PDE10A (human, rat and mouse PDE10) and isoforms of PDEs 1, 3, 4, and 5, were purchased from commercial vendor BPS Bioscience. The enzymatic activity of PDEs was determined by cAMP measurement kit from CisBio (IBA) using HTRF technology.
The PDE enzymatic reaction was carried out in assay buffer (20 mM Tris-HCl pH7.5, 10 mM MgCl2, 0.1% bovine serum albumin) containing enzyme and substrate. The PDE enzymes concentration ranged from 10 pM-250 pM, depending on each enzyme's specific activity. The substrate cyclic nucleotide (cAMP or cGMP) concentration used in the assay was 20 nM for PDE10, and 100 nM for other PDEs. The inhibitory effect of compound was determined by incubating various concentration of inhibitor in the enzymatic assay. Typically, compound was serial diluted in DMSO then further diluted in assay buffer. Next, the compound at varying concentration was mixed with PDE enzyme. The reaction was initiated by addition of cyclic nucleotide substrate, and incubated for 60 minutes at 29 C. The reaction was stopped by addition of lysis buffer from assay kit. The cAMP-d2 and anti-cAMP cryptate in the lysis buffer detected the level of cAMP left from the PDE hydrolysis reaction. The PDE activity is reversely correlated with the amount of cAMP left in the reaction and can be converted to the percent activity of an uninhibited control (100%). Thus, IC50 value of inhibitor can be obtained by plotting inhibitor concentration against PDE activity at that concentration.

Sequence of human PDE10A (Q9Y233 290-1055 limits assumed): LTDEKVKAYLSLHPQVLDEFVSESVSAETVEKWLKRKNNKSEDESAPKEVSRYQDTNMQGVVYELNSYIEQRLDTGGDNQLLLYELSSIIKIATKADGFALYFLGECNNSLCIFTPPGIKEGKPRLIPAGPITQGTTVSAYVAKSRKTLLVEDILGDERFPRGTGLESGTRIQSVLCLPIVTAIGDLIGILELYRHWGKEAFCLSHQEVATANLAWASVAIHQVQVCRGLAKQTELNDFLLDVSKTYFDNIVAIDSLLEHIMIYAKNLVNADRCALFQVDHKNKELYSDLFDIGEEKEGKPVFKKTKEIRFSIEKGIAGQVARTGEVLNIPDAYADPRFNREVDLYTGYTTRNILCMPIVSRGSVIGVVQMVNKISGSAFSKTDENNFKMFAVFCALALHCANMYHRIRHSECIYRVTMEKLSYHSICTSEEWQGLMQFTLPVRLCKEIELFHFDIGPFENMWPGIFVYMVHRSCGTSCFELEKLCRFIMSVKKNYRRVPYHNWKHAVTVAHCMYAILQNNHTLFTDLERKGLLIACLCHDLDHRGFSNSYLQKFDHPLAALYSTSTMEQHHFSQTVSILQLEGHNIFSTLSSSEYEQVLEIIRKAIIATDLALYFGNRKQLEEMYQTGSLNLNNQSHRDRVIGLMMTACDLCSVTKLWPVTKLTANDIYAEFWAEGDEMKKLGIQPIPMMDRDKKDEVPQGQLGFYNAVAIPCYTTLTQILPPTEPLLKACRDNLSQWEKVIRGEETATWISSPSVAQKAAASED

| Compound | IC50 [nM] |
| --- | --- |
| 8-(2-Fluoro-5-methoxyphenyl)-2-[2-(quinolin-2-yl)ethyl]phthalazin-1(2H)-one [Example 164] | 100 to 200 |
| O=c1c2c(-c3ccncc3)csc2ccn1C1CC1c1ccc2ccccc2n1 (single isomer, unassigned) [293a] | < 100 |
| O=c1c2c(-c3ccncc3)csc2ccn1C1CC1c1ccc2ccccc2n1 (single isomer, unassigned) [293b] | < 100 |
| O=c1c2c(-c3ccnnc3)cccc2ccn1C1CC1c1ccc2ccccc2n1 (single isomer, unassigned) [Example 236, anti (−) 8-(pyridazin-4-yl)-2-(2-(quinolin-2-yl)cyclopropyl)isoquinolin-1(2H)-one] | < 100 |
| O=c1c2c(-c3ccc(F)nc3)cccc2ccn1C1CC1c1ccc2ccccc2n1 (single isomer, unassigned) [Example 237, anti (−) 8-(6-fluoropyridin-3-yl)-2-(2-(quinolin-2-yl)cyclopropyl)isoquinolin-1(2H)-one] | < 100 |
| O=c1c2c(-c3ccnc(F)c3)cccc2ccn1C1CC1c1ccc2ccccc2n1 (single isomer, unassigned) [Example 238, anti (−) 8-(2-fluoropyridin-4-yl)-2-(2-(quinolin-2-yl)cyclopropyl)isoquinolin-1(2H)-one] | < 100 |
| O=c1c2c(-c3cncnc3)cccc2ccn1C1CC1c1ccc2ccccc2n1 (single isomer, unassigned) [Example 240a, anti (+) 8-(pyrimidin-5-yl)-2-(2-(quinolin-2-yl)cyclopropyl)isoquinolin-1(2H)-one] | < 100 |
| O=c1c2c(N3CCOCC3)cccc2ccn1C1CC1c1ccc2ccccc2n1 (single isomer, unassigned) [Example 246a, anti (+) 8-morpholino-2-(2-(quinolin-2-yl)cyclopropyl)isoquinolin-1(2H)-one] | < 100 |
| O=c1c2c(N3CCOCC3)cccc2ccn1C1CC1c1ccc2ccccc2n1 (single isomer, unassigned) [Example 246b, anti (−) 8-morpholino-2-(2-(quinolin-2-yl)cyclopropyl)isoquinolin-1(2H)-one] | < 100 |
| O=c1c2c(N3CCC4(COC4)C3)cccc2ccn1C1CC1c1ccc2ccccc2n1 (single isomer, unassigned) [Example 258, anti (−) 2-(2-(quinolin-2-yl)cyclopropyl)-8-(2-oxa-6-azaspiro[3.4]octan-6-yl)isoquinolin-1(2H)-one] | < 100 |
| O=c1c2c(N3CC4COCC4C3)cccc2ccn1C1CC1c1ccc2ccccc2n1 (single isomer, unassigned) [Example 259, anti (−) 8-(dihydro-1H-furo[3,4-c]pyrrol-5(3H,6H,6aH)-yl)-2-(2-(quinolin-2-yl)cyclopropyl)isoquinolin-1(2H)-one] | < 100 |
| O=c1c2c(N3CCC(F)(F)CC3)cccc2ccn1C1CC1c1ccc2ccccc2n1 (single isomer, unassigned) [Example 260, anti (−) 8-(4,4-difluoropiperidin-1-yl)-2-(2-(quinolin-2-yl)cyclopropyl)isoquinolin-1(2H)-one] | < 100 |
| COc1ccc(-c2cccc3ccn(C4CC4c4ccc5ccccc5n4)c(=O)c23)cc1 (single isomer, unassigned) [Example 270, anti (−) 8-(4-methoxyphenyl)-2-(2-(quinolin-2-yl)cyclopropyl)isoquinolin-1(2H)-one] | < 100 |
| O=c1c2c(-c3cncnc3)cccc2c(Cl)cn1C1CC1c1ccc2ccccc2n1 (single isomer, unassigned) [Example 276, anti (−)-4-chloro-8-(pyrimidin-5-yl)-2-(2-(quinolin-2-yl)cyclopropyl)isoquinolin-1(2H)-one] | < 100 |
| O=c1c2c(-c3ccncc3)cccc2ccn1C1CC1c1ccc2ccccc2n1 (single isomer, unassigned; (+)) [Example 222a, (+) 8-(pyridin-4-yl)-2-(2-(quinolin-2-yl)cyclopropyl)isoquinolin-1(2H)-one] | < 100 |

Further lines, results first:

| IC50 [nM] | Compound |
| --- | --- |
| < 100 | O=c1c2c(-c3ccncc3)cccc2ccn1C1CC1c1ccc2ccccc2n1 (racemic) [Example 222, anti (rac) 8-(Pyridin-4-yl)-2-(2-(quinolin-2-yl)cyclopropyl)isoquinolin-1(2H)-one] |
| < 100 | O=c1c2c(-c3ccncc3)csc2ccn1C1CC1c1ccc2ccccc2n1 (racemic) [Example 224, anti (rac) 3-(Pyridin-4-yl)-5-(2-(quinolin-2-yl)cyclopropyl)thieno[3,2-c]pyridin-4(5H)-one] |
| < 100 | O=c1c2c(-c3ccncc3)cccc2cnn1C1CC1c1ccc2ccccc2n1 (racemic) [Example 226, anti (rac) 8-Pyridin-4-yl-2-(2-quinolin-2-yl-cyclopropyl)-2H-phthalazin-1-one 2,2,2,-trifluoroacetate] |
| < 100 | O=c1c2c(NC3COC3)cccc2ccn1[C@@H]1C[C@H]1c1ccc2ccccc2n1 (racemic) [Example 235, anti 8-(Oxetan-3-ylamino)-2-(2-(quinolin-2-yl)cyclopropyl)isoquinolin-1(2H)-one] |
| < 100 | O=c1c2c(-c3cncnc3)cccc2ccn1[C@@H]1C[C@H]1c1ccc2ccccc2n1 (racemic) [Example 240, anti 8-(pyrimidin-5-yl)-2-(2-(quinolin-2-yl)cyclopropyl)isoquinolin-1(2H)-one] |
| < 100 | O=c1c2c(-c3ccnnc3)coc2ccn1[C@@H]1C[C@H]1c1ccc2ccccc2n1 (relative stereo) [Example 232, anti 3-(Pyridazin-4-yl)-5-(2-(quinolin-2-yl)cyclopropyl)furo[3,2-c]pyridin-4(5H)-one] |
| < 100 | O=c1c2c(-c3ccncc3)coc2ccn1[C@@H]1C[C@H]1c1ccc2ccccc2n1 (relative stereo) [Example 233, anti 3-(pyridin-4-yl)-5-(2-(quinolin-2-yl)cyclopropyl)furo[3,2-c]pyridin-4(5H)-one] |
| < 100 | Cn1cc(-c2cccc3ccn([C@@H]4C[C@H]4c4ccc5ccccc5n4)c(=O)c23)cn1 (relative stereo) [Example 241, anti 8-(1-methyl-1H-pyrazol-4-yl)-2-(2-(quinolin-2-yl)cyclopropyl)isoquinolin-1(2H)-one] |
| < 100 | O=c1c2c(-c3ccncc3F)cccc2ccn1[C@@H]1C[C@H]1c1ccc2ccccc2n1 (relative stereo) [Example 242, anti 8-(3-fluoropyridin-4-yl)-2-(2-(quinolin-2-yl)cyclopropyl)isoquinolin-1(2H)-one] |
| < 100 | O=c1c2c(-c3ccnc(F)c3)cccc2ccn1[C@@H]1C[C@H]1c1ccc2ccccc2n1 (relative stereo) [Example 243, anti 8-(2-fluoropyridin-4-yl)-2-(2-(quinolin-2-yl)cyclopropyl)isoquinolin-1(2H)-one] |
| < 100 | N#CC1CCN(c2cccc3ccn([C@@H]4C[C@H]4c4ccc5ccccc5n4)c(=O)c23)CC1 (relative stereo) [Example 247, anti 1-(1-oxo-2-(2-(quinolin-2-yl)cyclopropyl)-1,2-dihydroisoquinolin-8-yl)piperidine-4-carbonitrile] |
| < 100 | COC1CCN(c2cccc3ccn([C@@H]4C[C@H]4c4ccc5ccccc5n4)c(=O)c23)CC1 (relative stereo) [Example 252, anti 8-(4-methoxypiperidin-1-yl)-2-(2-(quinolin-2-yl)cyclopropyl)isoquinolin-1(2H)-one (2E)-but-2-enedioate] |
| < 100 | O=c1c2c(N3CCC(O)CC3)cccc2ccn1[C@@H]1C[C@H]1c1ccc2ccccc2n1 (relative stereo) [Example 253, anti 8-(4-hydroxypiperidin-1-yl)-2-(2-(quinolin-2-yl)cyclopropyl)isoquinolin-1(2H)-one (2E)-but-2-enedioate] |
| < 100 | O=c1c2c(-c3ccc(F)cc3)cccc2ccn1[C@@H]1C[C@H]1c1ccc2ccccc2n1 (relative stereo) [Example 267, anti 8-(4-fluorophenyl)-2-(2-(quinolin-2-yl)cyclopropyl)isoquinolin-1(2H)-one] |
| < 100 | O=c1c2c(N3CCOCC3)cccc2ccn1[C@@H]1C[C@H]1c1ccc2cc(F)ccc2n1 (relative stereo) [Example 271, anti 2-(2-(6-fluoroquinolin-2-yl)cyclopropyl)-8-morpholinoisoquinolin-1(2H)-one] |
| < 100 | O=c1c2c(-c3cncnc3)cccc2ccn1[C@@H]1C[C@H]1c1ccc2cc(F)ccc2n1 (relative stereo) [Example 273, anti 2-(2-(6-fluoroquinolin-2-yl)cyclopropyl)-8-(pyrimidin-5-yl)isoquinolin-1(2H)-one] |
| < 100 | O=c1c2c(-c3ccncc3)ccnc2cnn1[C@@H]1C[C@H]1c1ccc2ccccc2n1 (relative stereo) [Example 277, anti 4-(pyridin-4-yl)-6-(2-(quinolin-2-yl)cyclopropyl)pyrido[2,3-d]pyridazin-5(6H)-one] |
| < 100 | O=c1c2c(-c3ccncc3)cccc2cnn1[C@@H]1C[C@H]1c1ccc2cc(F)ccc2n1 (relative stereo) [compound 278] |
| < 100 | O=c1c2c(-c3ccnc(F)c3)csc2ccn1[C@@H]1C[C@H]1c1ccc2ccccc2n1 (relative stereo) [compound 286] |

Source: patent US20130116241A1, “NOVEL INHIBITOR COMPOUNDS OF PHOSPHODIESTERASE TYPE 10A” (AbbVie Inc., priority 2011, published 2013)
